Here are results for eleven compounds from US20190367516A1 (Bayer Pharma Aktiengesellschaft, priority 2015, published 2019).

Read-outs that look alike come from different tables or passages of the source.

The assay addresses T1, human M2 receptor (Homo sapiens, UniProt P08172).
T1 sequence (P08172 1-466): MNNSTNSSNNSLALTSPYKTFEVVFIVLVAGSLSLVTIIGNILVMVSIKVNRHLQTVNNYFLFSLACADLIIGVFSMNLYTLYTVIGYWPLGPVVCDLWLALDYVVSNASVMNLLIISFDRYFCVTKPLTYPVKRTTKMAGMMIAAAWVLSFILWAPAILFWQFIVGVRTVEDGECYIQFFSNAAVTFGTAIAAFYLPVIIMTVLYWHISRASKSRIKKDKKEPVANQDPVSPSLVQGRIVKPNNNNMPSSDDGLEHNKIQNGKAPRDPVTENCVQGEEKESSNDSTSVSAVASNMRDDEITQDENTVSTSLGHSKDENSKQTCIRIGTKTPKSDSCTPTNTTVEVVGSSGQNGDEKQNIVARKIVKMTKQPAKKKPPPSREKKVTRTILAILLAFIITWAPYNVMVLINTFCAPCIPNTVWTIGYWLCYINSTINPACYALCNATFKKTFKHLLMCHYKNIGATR
The note with it: for Emax: read-out: Efficiency, boosting of the acetylcholine effect at EC20 acetylcholine concentration.

Where [1] appears, read: Receptor activity EC50, allosteric potency at EC20 acetylcholine, M2-GIRK1/4 reporter cells, in some cases mean of two or more determinations.
The mark [2] stands for this setting: Receptor activity EC50, M2-GIRK1/4 activation test, acetylcholine at EC20, allosteric potency, in some cases mean values from two or more determinations.

A word on the EC50: it is the concentration giving half of the maximal effect. Lower therefore signals an effect from little substance.

Compound `COC1(C)CN(c2ccc3c(=O)c(C(=O)NC45CC(C4)C5)cn(-c4c(F)cc(F)cc4F)c3n2)C1` [Example 641, N-(Bicyclo[1.1.1]pent-1-yl)-7-(3-methoxy-3-methylazetidin-1-yl)-4-oxo-1-(2,4,6-trifluorophenyl)-1,4-dihydro-1,8-naphthyridine-3-carboxamide] yielded an EC50 under setting [1] of 71 nM. For the same compound, the Emax (M2-GIRK1/4 reporter cells) is 100%.

Turning to `O=C(NC(c1ccccc1Cl)C(F)(F)F)c1cn(-c2c(F)cc(F)cc2F)c2nc(N3C[C@@H](O)[C@H](O)C3)ccc2c1=O` (mixture of isomers) [Example 560, N-[1-(2-Chlorophenyl)-2,2,2-trifluoroethyl]-7-[(3R,4R)-3,4-dihydroxypyrrolidin-1-yl]-4-oxo-1-(2,4,6-trifluorophenyl)-1,4-dihydro-1,8-naphthyridine-3-carboxamide], the EC50 under setting [1] came out at 17 nM. In addition, the Emax (M2-GIRK1/4 reporter cells) amounted to 100%. For the compound `CN(C)c1ccc2c(=O)c(C(=O)NC(c3ccccc3Cl)C(F)(F)F)cn(-c3ccc(F)cc3F)c2n1` (racemic) [Example 48, rac-N-[1-(2-Chlorophenyl)-2,2,2-trifluoroethyl]-1-(2,4-difluorophenyl)-7-(dimethylamino)-4-oxo-1,4-dihydro-1,8-naphthyridine-3-carboxamide], under setting [2], a half-maximal response (EC50) required 110 nM. Turning to `CC(C)C(NC(=O)c1cn(-c2ccc(F)cc2F)c2nc(N(C)CCF)ccc2c1=O)C(F)(F)F` (stereo not drawn) [Example 108, 1-(2,4-Difluorophenyl)-7-[(2-fluoroethyl)(methyl)amino]-4-oxo-N-[1,1,1-trifluoro-3-methylbutan-2-yl]-1,4-dihydro-1,8-naphthyridine-3-carboxamide], a half-maximal response under setting [2] (EC50) required 24 nM. On to `CC[C@@H](NC(=O)c1cn(-c2c(F)cccc2Cl)c2nc(N3CC[C@H](O)C3=O)ccc2c1=O)C(F)(F)F` [Example 309, 1-(2-Chloro-6-fluorophenyl)-7-[(3S)-3-hydroxy-2-oxopyrrolidin-1-yl]-4-oxo-N-[(2R)-1,1,1-trifluorobutan-2-yl]-1,4-dihydro-1,8-naphthyridine-3-carboxamide], for which the EC50 under setting [2] was determined as 40 nM.

Consider `O=C(NC(c1ccccc1Cl)C(F)(F)F)c1cn(-c2c(F)cc(F)cc2F)c2nc(N3CCNC3=O)ccc2c1=O` (single isomer, unassigned) [Example 565, N-[1-(2-Chlorophenyl)-2,2,2-trifluoroethyl]-4-oxo-7-(2-oxoimidazolidin-1-yl)-1-(2,4,6-trifluorophenyl)-1,4-dihydro-1,8-naphthyridine-3-carboxamide], for which the midpoint of the response under setting [1], the EC50, lay at 10 nM. `O=C(NC1(C(F)(F)F)CCC1)c1cn(-c2c(F)cc(F)cc2F)c2nc(N3C[C@@H](O)[C@H](O)C3)ccc2c1=O` [Example 625, 7-[(3R,4R)-3,4-Dihydroxypyrrolidin-1-yl]-4-oxo-N-[1-(trifluoromethyl)cyclobutyl]-1-(2,4,6-trifluorophenyl)-1,4-dihydro-1,8-naphthyridine-3-carboxamide] came in with an EC50 under setting [1] of 43 nM. Further, the Emax (M2-GIRK1/4 reporter cells) came out at 100%. Take `CC[C@@H](NC(=O)c1cn(-c2ccc(F)cc2F)c2nc(N3CC(C)CC3=O)ccc2c1=O)C(F)(F)F` (single isomer, unassigned) [Example 302]: under setting [2], the EC50 came to 17 nM. On to `CC(C)(C)NC(=O)c1cn(-c2c(F)cc(F)cc2F)c2nc(N3C[C@@H](O)CC3=O)ccc2c1=O` [Example 469, N-tert-Butyl-7-[(4S)-4-hydroxy-2-oxopyrrolidin-1-yl]-4-oxo-1-(2,4,6-trifluorophenyl)-1,4-dihydro-1,8-naphthyridine-3-carboxamide], for which the EC50 under setting [1] turned out to be 20 nM. For the setting “M2-GIRK1/4 reporter cells”, the Emax turned out to be 100%. Compound `CC[C@@H](NC(=O)c1cn(-c2ccc(F)cc2F)c2nc(N3CCOC(C(F)F)C3)ccc2c1=O)C(F)(F)F` (single isomer, unassigned) [Example 265] had an EC50 under setting [2] of 23700 nM.

Under setting [2], `Cc1cccc(C)c1NC(=O)c1cn(-c2ccc(F)cc2F)c2nc(N(C)C)ccc2c1=O` [Example 54, 1-(2,4-Difluorophenyl)-7-(dimethylamino)-N-(2,6-dimethylphenyl)-4-oxo-1,4-dihydro-1,8-naphthyridine-3-carboxamide] returned an EC50 of 85 nM.
